The values below come from US4927658A, “Tris-hydroxymethyl alkane esters as low calorie fat mimetics” (Nabisco Brands, Inc., priority 1989, dated 1990).

For data set [1] the following is noted: rat, in vivo; cited from earlier work.
Data set [2] has as its system porcine pancreatic lipase. The data set can be described thus: in vitro digestibility using pancreatic lipase. The data set is classed as in vitro ADME. To be noted: 37° C., pH 7.1. As to the method:
This example outlines the procedure for estimating the in vitro digestibility of the synthetic fat mimetics of this invention using pancreatic lipase.
1. Buffer: A pH 7.1 phosphate buffer is prepared by dissolving 6.8 g. KH2 PO4 in 1 L. of millipore filtered water (to yield 0.05M phosphate). Fifty mg. Ca(NO3)2 and 5.0 g. cholic acid (Na salt, an ox bile isolate from Sigma) are added to give 300 microM Ca^++ and 0.5% cholic acid in 0.05M phosphate. The pH is adjusted to approximately 7.1 with solid NaOH. Several drops of Baker "Resi-analyzed" toluene are added to prevent bacterial growth during storage at 3°-5° C.
2. Lipase: About 15 mg./mL commercial porcine pancreatic lipase from U.S. Biochemical Corporation is dissolved in buffer.
3. Substrates and Standards: A 1.0 mL volumetric flask is charged with an amount of lipid substrate (test substance or standard) calculated to give a concentration of 200 nanomoles per microliter in Baker "Resi-analyzed" toluene. (The proper concentration may be approximated by […] the molecular weight of the lipid in question, dividing by 10, and diluting to the mark; this yields about 200 nanomoles per microliter.) This preparation affords the substrate to be used in the hydrolysis reactions. […]

Data set [3] concerns pancreatic lipase. To be noted: Minich, col. 4, lines 62-64; cited from earlier work.
A short description of data set [4]: in vivo animal feeding study for caloric availability. To be noted: rats, diet of 50% fort and 21% test compound, 14 days. Details: species or system male Sprague-Dawley rats. From the text:
This example illustrates how the novel fat mimetics of this invention are screened for caloric availability by a carefully controlled in vivo animal feeding study.
An experimental relationship between total calories ingested and animal body weight gain is established by monitoring the body weight gain associated with consumption of a nutritionally balanced diet containing varying concentrations of a reference substance such as corn oil which has a known caloric availability. Correlations between total calories ingested and body weight gain are excellent (r=0.99).
Caloric availability of an unknown substance is evaluated by substituting a specific weight of the unknown substance for the reference substance and observing the body weight gain. The gain in body weight is equated to a total number of calories using the correlation previously established for the reference data. The estimated number of calories ingested are divided by the weight of unknown substance to give the apparent calories per gram for the unknown substance. Generally speaking, in these bioavailability studies, the degree of perianal pelt soiling correlates with reduced bioavailability.
The test animals are six-week-old male Sprague-Dawley rats obtained from the Portage, Mich. facility of the Charles River Laboratories, Inc. After acclamation for 15 days, the test duration is 14 days. […]

In the case of corn oil, the “caloric availability of reference” value in data set [1] is 9.0 calories/gram. For `CCCCCCCC/C=C\CCCCCCCC(=O)OCC(COC(=O)CCCCCCC/C=C\CCCCCCCC)OC(=O)CCCCCCC/C=C\CCCCCCCC` [triolein], the “hydrolysis by pancreatic lipase” value in data set [2] (triglyceride control, in 10 minutes) is listed as “substantially hydrolyzed”. Take `CCCCCCCC(=O)OCC(COC(=O)CCCCCCC)(COC(=O)CCCCCCC)COC(=O)CCCCCCC` [pentaerythritol tetracaprylate]: the “hydrolysis by pancreatic lipase” value in data set [3] was “not attacked, hydrolyzed”. Take `CCCCCCCC/C=C\CCCCCCCC(=O)OCC(C)(COC(=O)CCCCCCC/C=C\CCCCCCCC)COC(=O)CCCCCCC/C=C\CCCCCCCC` [Example 1, 1,1,1-Tris hydroxymethylethane trioleate]: in data set [2] (after three hours contact with pancreatic lipase), the “hydrolysis by pancreatic lipase” value is reported as “limited hydrolysis”. The “caloric availability upon being metabolized” value in data set [4] is “about 3.3 kcal/gram”.
